This passage reports solubility results from ChEMBL document CHEMBL4028880, “Structure-Activity Relationships of New Natural Product-Based Diaryloxazoles with Selective Activity against Androgen Receptor-Positive Breast Cancer Cells” (J Med Chem, 2017).

This series is described as follows: Aqueous solubility of the compound. Type of series: physicochemical. As to conditions: buffer.

Turning to `CC(C)=CCOc1ccc(-c2cnc(-c3ccccc3)o2)cc1`, the solubility entry is recorded as “Insoluble”.
